# Tested on: alternative splicing of host transcripts in HeLa rtTA HIV∆Mls cells
# Experiment: RT-PCR of host alternative splicing events (PSI), capillary electrophoresis
# Type: cell-based
# Procedure: To assess the effect of compounds on expression/alternative splicing of cellular RNA, two approaches were used. For both, total RNA was prepared from DMSO or compound-treated cells. In the first assay, samples were assayed by medium throughput RT-PCR to determine the inclusion levels of alternatively spliced exons and splice sites located in 73 selected events. 73 primer sets containing a fluorescently (5-FAM) labeled primer for each, were used in RT-PCR. PCR products generated were denatured in formamide and quantified using ABI Prism capillary sequencer (Life Technologies). The fragment analysis was performed on the PeakScanner software (Life Technologies) in batch mode and automated using custom scripts written in Python. The inclusion level of each exon was calculated as the amount of transcripts carrying the alternative exon relative to the total amount of all transcripts detected in the PCR reaction and results are summarized for compound-treatment in comparison to DMSO treatment. In the second assay, extracted RNA was processed using the Illumina TruSeq RNA Sample Preparation Kit (Illumina) according to the manufacturer’s instructions. The cDNA library generated was validated (passed quality control on a Bioanalyzer 1000 DNA chip (Agilent)), normalized and pooled for cluster generation. cDNA libraries were sequenced on the Illumina HiSeq 2500 (paired-end, 125 bp) with version 4 chemistry following manufacturer’s protocols. The full human genome and transcriptomic sequences were downloaded from the UCSC Genome Browser (genome.ucsc.edu) database and Ensembl (www.ensembl.org), respectively, as described by Irimia et al.. Exon annotations and genomic coordinates for alternative splicing (AS) analysis were derived from tables downloaded from the UCSC Genome Browser database. To determine gene expression (GE) or alternative splicing (AS) changes in an unbiased way, the effective number of unique mappable positions in each transcript (i.e. the effective length) was determined by aligning sequences with unique transcriptomic alignment to the human genome using Bowtie. Reads with one unique genomic alignment were then aligned against the canonical transcriptome and, for each transcript, the number of reads with one unique transcriptomic alignment were counted. The expression level of genes was quantified as corrected ‘reads per kilobase of exon model per million mapped reads’ (cRPKM), a widely used metric to estimate gene expression levels. The expression cutoff was 0.5 cRPKM, corresponding to the transcript of the gene being present if there were ≥10 reads that mapped uniquely to a single genomic locus. Approximately 19,847 Ensembl annotated protein-coding genes were compared to create a gene list of differentially expressed genes. Genes were considered differentially expressed if fold changes in cRPKM was ≥2 in compound-treated versus DMSO-treated samples.
# [1] = of 70 AS events, 791 30 µM, 833 2 µM
structure (smiles),measurement,setting,value
"Cc1cc(NCc2cccnc2)n2ncc(-c3ccc(Cl)cc3)c2n1 [Compound 791, 3-(4-chlorophenyl)-5-methyl-N-(3-pyridinylmethyl)pyrazolo[1,5-a]pyrimidin-7-amine]",DPSI AGPAT4_1 chr6:161506598-161506735,"9147791 minus DMSO, mean n=3",-4.00%
same,DPSI AGPAT4_1 chr6:161507269-161507439,"9147791 minus DMSO, mean n=3",-6.33%
same,DPSI APLP2_1 chr11:129498717-129498884,"9147791 minus DMSO, mean n=3",1.33%
same,DPSI APP_1 chr21:26291546-26291602,"9147791 minus DMSO, mean n=3",0.33%
same,DPSI APP_1 chr21:26294201-26294368,"9147791 minus DMSO, mean n=3",-1.33%
same,DPSI ATP6V0A1_1 chr17:37919833-37920004,"9147791 minus DMSO, mean n=3",2.00%
same,DPSI CA12_1 chr15:61406400-61406485,"9147791 minus DMSO, mean n=3",-0.33%
same,DPSI CA12_1 chr15:61407349-61407382,"9147791 minus DMSO, mean n=3",4.67%
same,DPSI CASP9_1 chr1:15703693-15703840*,"9147791 minus DMSO, mean n=3",-1.33%
same,DPSI CAST_1 chr5:96090613-96090669,"9147791 minus DMSO, mean n=3",5.33%
same,DPSI CLSTN1_1 chr1:9720143-9720199,"9147791 minus DMSO, mean n=3",-8.67%
same,DPSI CLSTN1_2 chr1:9739126-9739155,"9147791 minus DMSO, mean n=3",-2.33%
same,DPSI CRBN_1 chr3:3191846-3191950,"9147791 minus DMSO, mean n=3",0.00%
same,DPSI CRBN_1 chr3:3191950-3191953,"9147791 minus DMSO, mean n=3",0.00%
same,DPSI CTNND1_1 chr11:57318058-57318129,"9147791 minus DMSO, mean n=3",-4.33%
same,DPSI DNM1L_1 chr12:32782066-32782143,"9147791 minus DMSO, mean n=3",9.00%
same,DPSI DNM1L_1 chr12:32782465-32782497,"9147791 minus DMSO, mean n=3",-2.00%
same,DPSI DRCTNNB1A_1 chr7:22953096-22953391,"9147791 minus DMSO, mean n=3",-8.00%
same,DPSI EIF4A2_1 chr7:187988792-187988899,"9147791 minus DMSO, mean n=3",3.33%
same,DPSI EIF4A2_1 chr7:187988899-187988904,"9147791 minus DMSO, mean n=3",2.00%
same,DPSI EIF4H_1 chr7:73242512-73242572,"9147791 minus DMSO, mean n=3",0.00%
same,DPSI ERC1_1 chr12:1091641-1091725,"9147791 minus DMSO, mean n=3",2.67%
same,DPSI EXOC7_1 chr17:71598005-71598035,"9147791 minus DMSO, mean n=3",-6.00%
same,DPSI EXOC7_1 chr17:71598819-71598911,"9147791 minus DMSO, mean n=3",-4.67%
same,DPSI FAM62B_1 chr7:158238233-158238295,"9147791 minus DMSO, mean n=3",-8.33%
same,DPSI FAM104A_1 chr17:68720412-68720474,"9147791 minus DMSO, mean n=3",-1.00%
same,DPSI FGFR1OP2_1 chr12:27004715-27004828,"9147791 minus DMSO, mean n=3",-11.00%
same,DPSI FIP1L1_1 chr4:53975538-53975646,"9147791 minus DMSO, mean n=3",-4.33%
same,DPSI GGCT_1 chr7:30504943-30505080,"9147791 minus DMSO, mean n=3",3.33%
same,DPSI GGCT_1 chr7:30506676-30506822,"9147791 minus DMSO, mean n=3",3.33%
same,DPSI GLK_1 chr2:39388587-39388650,"9147791 minus DMSO, mean n=3",-0.33%
same,DPSI GM130_1 chr9:130069293-130069374,"9147791 minus DMSO, mean n=3",-9.67%
same,DPSI GRB10_1 chr7:50651400-50651538,"9147791 minus DMSO, mean n=3",-0.33%
same,DPSI KIF13A_1 chr6:17879324-17879428,"9147791 minus DMSO, mean n=3",-1.33%
same,DPSI MACF1_1 chr1:39616720-39616782,"9147791 minus DMSO, mean n=3",3.33%
same,DPSI MACF1_5 chr1:39719179-39719289,"9147791 minus DMSO, mean n=3",-13.67%
same,DPSI MAP3K7_1 chr6:91310992-91311072,"9147791 minus DMSO, mean n=3",0.33%
same,DPSI MARK3_1 chr14:103034592-103034618,"9147791 minus DMSO, mean n=3",-2.67%
same,DPSI MARK3_1 chr14:103036246-103036290,"9147791 minus DMSO, mean n=3",-1.33%
same,DPSI MBD1_1 chr18:46054554-46054721,"9147791 minus DMSO, mean n=3",-9.33%
same,DPSI MBNL2_1 chr13:96807051-96807104,"9147791 minus DMSO, mean n=3",0.33%
same,DPSI MFF_1 chr2:227901637-227901749,"9147791 minus DMSO, mean n=3",4.33%
same,DPSI MRIP_1 chr17:17024646-17024708,"9147791 minus DMSO, mean n=3",1.00%
same,DPSI MVK_1 chr12:108501990-108502134,"9147791 minus DMSO, mean n=3",11.00%
same,DPSI MVK_1 chr12:108503583-108503738,"9147791 minus DMSO, mean n=3",20.33%
same,DPSI NAP1L1_1 chr12:74747418-74747520,"9147791 minus DMSO, mean n=3",4.67%
same,DPSI NAP1L1_1 chr12:74748956-74749041,"9147791 minus DMSO, mean n=3",4.33%
same,DPSI NPHP3_1 chr3:133898264-133898347,"9147791 minus DMSO, mean n=3",-1.00%
same,DPSI NUMB_2 chr14:72815742-72815885,"9147791 minus DMSO, mean n=3",0.67%
same,DPSI NUMB_2 chr14:72820542-72820835,"9147791 minus DMSO, mean n=3",6.67%
same,DPSI PDCL_1 chr9:124628716-124628892,"9147791 minus DMSO, mean n=3",1.33%
same,DPSI POLDIP3_1 chr22:41327919-41328006,"9147791 minus DMSO, mean n=3",-3.67%
same,DPSI POMT1_1 chr9:133368281-133368521,"9147791 minus DMSO, mean n=3",5.67%
same,DPSI POMT1_1 chr9:133371321-133371428,"9147791 minus DMSO, mean n=3",5.67%
same,DPSI RAI14_1 chr5:34849436-34849522,"9147791 minus DMSO, mean n=3",3.67%
same,DPSI RAN_1 chr12:129923082-129923127,"9147791 minus DMSO, mean n=3",-2.00%
same,DPSI RPS24_1 chr10:79467729-79467746,"9147791 minus DMSO, mean n=3",1.67%
same,DPSI SEC24B_1 chr4:110622281-110622386,"9147791 minus DMSO, mean n=3",-4.00%
same,DPSI SETD5_1 chr3:9453533-9453572,"9147791 minus DMSO, mean n=3",-1.33%
same,DPSI SMN2_1 chr5_h2_hap1:475625-475826,"9147791 minus DMSO, mean n=3",0.33%
same,DPSI SMN2_2 chr5_h2_hap1:466192-466246,"9147791 minus DMSO, mean n=3",1.67%
same,DPSI SPAG9_1 chr17:46408223-46408261,"9147791 minus DMSO, mean n=3",-6.67%
same,DPSI SRPK2_1 chr2:104553464-104553557,"9147791 minus DMSO, mean n=3",-1.00%
same,DPSI SRPK2_1 chr2:104553930-104554023,"9147791 minus DMSO, mean n=3",0.00%
same,DPSI TPM1_1 chr15:61140450-61140525,"9147791 minus DMSO, mean n=3",1.67%
same,DPSI TPM1_1 chr15:61140965-61141040,"9147791 minus DMSO, mean n=3",-1.67%
same,DPSI TRIM37_1 chr17:54433741-54433857,"9147791 minus DMSO, mean n=3",-4.67%
same,DPSI ZNF827_1 chr4:146903692-146903724,"9147791 minus DMSO, mean n=3",2.33%
same,DPSI ZNF827_1 chr4:146905581-146905589,"9147791 minus DMSO, mean n=3",-1.00%
same,AS events with DPSI ≤ -10%,[1],2
same,AS events with DPSI ≥ 10%,[1],0
same,AS events with P ≤ 0.05,[1],9
